In data set [1] the test system is spontaneous inflammatory pain (CFA model). Briefly: Single exposure place preference (sePP), spontaneous pain. The data set is classed as in vivo, mice. Here is the method: Inflammatory pain (CFA model): Animals were habituated to the experimental room for a minimum of 60 min before initiation of the experiment. Mechanical pain threshold of both hind paws was determined by von Frey measurements. Injury was induced on the right hind paw, whereas the contralateral left hind paw was used as internal control of the animal. […] In the current experiment filaments in ascending order were applied to the frontocentral plantar surface of the hind paws. […] Each von Frey filament was applied five times with adequate resting periods between each application and number of withdrawals recorded. The withdrawal threshold was determined as the von Frey filament eliciting at least 3 positive trials out of the 5 applications in two consecutive filaments. A positive trial was defined as sudden paw withdrawal, flinching and/or paw licking induced by the filament. The inflammatory pain was induced by injection of 50 μL undiluted Complete Freund's Adjuvant (CFA) ([…], Sigma) unilaterally into the intraplantar surface of the right hind paw. All intraplantar injections were performed with an insulin needle (0.3 mL BD Micro-Fine), while the animal was under isoflurane anesthesia (2%) for maximum 60 seconds. […] Statistical analysis: was performed using GraphPad Prism 6.0. Student's t-test. Significance level set to p<0.05. […] All mice from a cage were tested at the same time, but not all given the same treatment. On exposure days, mice were weighed and injected s.c. with peptide (30 μmol/kg) or vehicle (10 μL/g) and immediately placed into the designated compartment for 60 min. The test group was exposed to peptide in the least preferred compartment, and vehicle (PBS) in the preferred compartment, whereas the control group was injected with vehicle in both compartments. […] Time spent in the different compartments was measured by Ethovision (Noldus, Wageningen, Netherlands). An additional experiment was run on animals without injury, showing no mPD5-dependent preference change

The target in data set [2] is T1, PICK1 (Rattus norvegicus, UniProt Q9EP80).
T1 construct: Full length rat PICK1 (pET41) was prepared as described earlier; inferred from pET41 vector and Glutathione-Sepharose capture) (N, cleaved yes); made in house; host or cells: E. coli BL21-DE3-pLysS
T1 sequence (Q9EP80 whole entry): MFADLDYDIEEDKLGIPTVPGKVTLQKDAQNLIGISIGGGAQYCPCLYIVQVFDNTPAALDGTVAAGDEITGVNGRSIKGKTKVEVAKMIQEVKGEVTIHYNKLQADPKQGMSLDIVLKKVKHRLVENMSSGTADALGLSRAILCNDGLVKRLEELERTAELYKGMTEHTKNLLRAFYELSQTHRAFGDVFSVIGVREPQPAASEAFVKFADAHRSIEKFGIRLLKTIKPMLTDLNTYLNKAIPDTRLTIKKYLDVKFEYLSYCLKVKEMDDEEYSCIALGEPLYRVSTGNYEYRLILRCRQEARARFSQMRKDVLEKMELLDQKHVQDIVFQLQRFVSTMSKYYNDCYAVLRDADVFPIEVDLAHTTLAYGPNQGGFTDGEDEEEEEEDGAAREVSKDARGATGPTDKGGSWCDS
Briefly: Fluorescence polarization competition binding to recombinant PICK1. The procedure:
Full length rat PICK1 (pET41) was prepared as described earlier (Madsen et al., 2005). In brief, PICK1 was expressed in BL21-DE3-pLysS cells and grown at 37° C., induced at OD600=0.6 with 1 mM Isopropyl β-D-1-thiogalactopyranoside (IPTG) and grown 16 hrs at 20° C. Cultures were harvested and re-suspended in 50 mM trisaminomethane (Tris), 125 mM NaCl, 2 mM Dithiothreitol (DTT, Sigma), 1% Triton X-100 (Sigma), 20 μg/mL DNAse 1 and 1⁄2 a tablet cOmplete protease inhibitor cocktail (Roche) pr. 1 L culture. The re-suspended pellets were frozen at -80° C. for later purification. […] Each column was sealed and 0.075 U/μL, Novagen® was added for cleavage 0/N at 4° C. under gentle rotation. PICK1 was eluted on ice and absorption at 280 nm was measured on TECAN plate reader or on a NanoDrop3000. The protein concentration was determined using lambert beers law (A=ε[…]=32320 (cm*mol/L)^-1. Fluorescence polarization: Fluorescence polarization was carried out in competition mode at a fixed concentration of protein and tracer (5[…], 5 nM or 5[…], 20 nM), against an increasing concentration of indicated unlabelled peptide. The plate was incubated for 2 hours on ice in a black half-area Corning Black non-binding surface 96-well plate. The fluorescence polarization was measured directly on an Omega POLARstar plate reader using excitation filter at 488 nm and long pass emission filter at 535 nm. The data was plotted using GraphPad Prism 8.3, and fitted to the One site competition, to extract Ki,app value.
Background: Polarisation of emitted light reports the rotation of a fluorescent probe.

Data set [3] addresses T1, PICK1. Briefly: Size exclusion chromatography of PICK1 in complex with inhibitor. The conditions noted are these: 40 μM PICK1 with 10 μM inhibitor (4:1). Here is the method:
Full length rat PICK1 (pET41) was prepared as described earlier (Madsen et al., 2005). In brief, PICK1 was expressed in BL21-DE3-pLysS cells and grown at 37° C., induced at OD600=0.6 with 1 mM Isopropyl β-D-1-thiogalactopyranoside (IPTG) and grown 16 hrs at 20° C. Cultures were harvested and re-suspended in 50 mM trisaminomethane (Tris), 125 mM NaCl, 2 mM Dithiothreitol (DTT, Sigma), 1% Triton X-100 (Sigma), 20 μg/mL DNAse 1 and 1⁄2 a tablet cOmplete protease inhibitor cocktail (Roche) pr. 1 L culture. The re-suspended pellets were frozen at -80° C. for later purification. […] Each column was sealed and 0.075 U/μL, Novagen® was added for cleavage 0/N at 4° C. under gentle rotation. PICK1 was eluted on ice and absorption at 280 nm was measured on TECAN plate reader or on a NanoDrop3000. The protein concentration was determined using lambert beers law (A=ε[…]=32320 (cm*mol/L)^-1. Size exclusion chromatography: Size exclusion chromatography was performed using an Äkta purifier with a Superdex200 Increase 10/300 column, where 500 μL of 40 μM PICK1 in absence or presence of 10 μM […] was loaded to the column. Absorbance profile was measured at 280 nm and plotted against elution volume using Graph Pad Prism 8.3.
(Size exclusion chromatography separates by hydrodynamic size, large species first.)

The nature of data set [4]: Chemical stability in PBS for 30 days, HPLC-UV-MS. The class given is physicochemical. Here is the method: Stability was addressed by […] for four concentration 2, 20, 50 and 200 μM, by leaving […] in PBS at 5 and […] for 30 days followed by HPLC-UV-MS method
Data set [5] in a line: Plasma exposure after s.c. injection, LC-MS. The data set is classed as in vivo. The note with it: male, C57BL/6N, mouse, sc; for Cmax: at 1 h, read-out: maximal plasma concentration. The procedure: Three point on the down-slope was determined from 3 points on the elimination phase.
Data set [6] is described as follows: Solubility by visual inspection in PBS. The class given is physicochemical.

The results in this text go back to US20230346948A1, “Lipid conjugated peptide inhibitors of PICK1” (University of Copenhagen, priority 2020, published 2023).

Where “and” joins values, the source holds several entries; their conditions need not be identical. Identical values can stand only once. Like-named read-outs stand apart in the source and are kept apart here.

Usually half-life stands for how long it takes for the measured level to halve. The term solubility denotes how much of the substance goes into solution per volume. Low readings indicate little dissolved substance, high ones much dissolved substance. With `CCCCCCCCCCCCCC(=O)N(CCOCCOCCC(=O)N[C@@H](Cc1c[nH]cn1)C(=O)N[C@@H](Cc1c[nH]c2ccccc12)C(=O)N[C@@H](CC(C)C)C(=O)N[C@@H](CCCCN)C(=O)N[C@H](C(=O)O)C(C)C)CCOCCOCCC(=O)N[C@@H](Cc1c[nH]cn1)C(=O)N[C@@H](Cc1c[nH]c2ccccc12)C(=O)N[C@@H](CC(C)C)C(=O)N[C@@H](CCCCN)C(=O)N[C@H](C(=O)O)C(C)C` [myr-NPEG4-(HWLKV)2], in data set [1] (CFA-injured mice, s.c. 30 μmol/kg, single exposure), the “place preference, time in drug-paired compartment vs vehicle-treated controls” value is listed as “spent significantly more time in the myr-NPEG4-(HWLKV)2-paired compartment”. In addition, the place preference entry in data set [1] (mice without injury (Naïve), s.c. 30 μmol/kg, single exposure) is given as “no change in preference”. Moreover, in data set [1] (mouse, in vivo), the abuse liability result is given as “lack of abuse liability”. The “affinity increase compared to HWLKV” value at PICK1 [2] (FP competition) was greater than 1000 fold. Besides, the “affinity increase compared to NPEG4-(HWLKV)2” value on PICK1 [2] (FP competition) was greater than 50 fold. Also, the Ki on PICK1 [2] (tracer 5FAM-NPEG4-(HWLKV)2 5 nM or 5FAM-HWLKV 20 nM (vs HWLKV), 2 hours on ice, read-out: Ki,app) worked out at 3 nM. In addition, at PICK1 [3], the “oligomeric state of PICK1 upon binding (SEC elution volume)” value is “forms higher order oligomeric structures of PICK1 upon binding”. Moreover, the “Measured Conc. mPD5” value was 0.5 µM in data set [4] (30 days @5° C, nominal 2 μM); 17 µM in data set [4] (30 days @5° C, nominal 20 μM); 49 µM in data set [4] (30 days @5° C, nominal 50 μM); 194 µM in data set [4] (30 days @5° C, nominal 200 μM); 0.4 µM in data set [4] (30 days @25° C, nominal 2 μM); 17 µM in data set [4] (30 days @25° C, nominal 20 μM). The “Measured Conc. mPD5” value is 48 µM in data set [4] (30 days @25° C, nominal 50 μM) and 203 µM in data set [4] (30 days @25° C, nominal 200 μM). Also, in data set [4] (+5° C. and +25° C. in the vehicle compositions), the “chemically stable for” value is “at least 30 days”. In data set [4] (PBS, 30 days, +5° C. and +25° C.), the degradation entry was “No degradation was observed”. In addition, in data set [4] (samples with 200 and 50 μM, 30 days in PBS), the purity after storage is recorded as greater than 98%. The Cmax in data set [5] (s.c. 3.75 mg/kg (2 μmol/kg)) worked out at 1450 ± 106 ng/mL; in data set [5] (s.c. 18.8 mg/kg (10 μmol/kg)) it was 6170 ± 508 ng/mL; in data set [5] (s.c. 93.8 mg/kg (50 μmol/kg)) it was 20300 ± 642 ng/mL. This compound showed a half-life in data set [5] (summary over doses) of 30 to 45 min. Further, the solubility in data set [6] is ≥ 130000 µM and 250000 µg/mL.
